For series [1], the system named is receptors with high estradiol affinity in the vaginal epithelium. Conditions: cited from earlier work; for affinity for vaginal epithelium receptors (decreasing order): female.
Series [2] can be described thus: plasma estradiol after vaginal administration (pharmacokinetic analysis). The class given is in vivo, human (patients). On the procedure: Pharmacokinetic analysis: From a pharmacokinetic viewpoint, the plasmic estradiol concentrations remained unquantifiable in the group of subjects after administration of low doses (2.5 μg and 5 μg) and in half of the subjects at a high dose (10 μg).
(§1) General conclusion: After a single vaginal administration of a soft capsule with 2.5 μg, 5 μg and 10 μg doses of 17β-estradiol, clinical tolerance was excellent for the group of six subjects included in the trial. Biological tolerance was also excellent.

Series [3] deals with vaginal estrogenic receptors. Conditions: cited from earlier work; for agonist/antagonist properties: estrogenic receptors; for effect on endogenous estradiol: in the presence of endogenous estrogen.
Series [4] in a line: plasma estrone after vaginal administration of 17β-estradiol. The class given is in vivo, human (patients). On the procedure:
In all cases, the estrone concentrations never exceeded 30 pg/ml.
as §1

Series [5] deals with vulvo-vaginal mucous membrane. Conditions: in vivo; cited from earlier work.
Series [6] deals with vaginal mucous membrane / endometrium. Conditions: 25 μg of 17β-estradiol per vaginal tablet, cited from earlier work.
[7] abbreviates: 10 μg, micronized free form, vaginal.

Entries after “also recorded” stand apart in the source; their conditions may differ.

With `C[C@]12CC[C@@H]3c4ccc(O)cc4CC[C@H]3[C@@H]1CC[C@@H]2O` [17β-estradiol], in series [1] (in words), the “affinity for vaginal estrogenic receptors” value was “high affinity”. Besides, the “affinity for vaginal epithelium receptors (decreasing order)” value (from here on “affinity … (decreasing order)”) in series [1] was 17β-estradiol>estriol>estrone. For the same compound, the “vaginal absorption of estradiol from soft capsules” value in series [2] (2.5 μg to 10 μg doses of 17β-estradiol) was “substantially zero”. Also, in series [2] (setting [7]), the systemic passage result is given as “only slight systemic passage is observed” and the “time of plasmic peak after administration” value is “about one”. The “vaginal resorption of estradiol” value in series [2] (capsules with 2.5 μg and 5 μg doses of 17β-estradiol) was “zero”. In series [3], the agonist/antagonist properties result is on record as “physiological estrogenic agonist; also recorded: pure agonist; also recorded: complete agonist” and the “effect on endogenous estradiol” value is “adding effects in the presence of endogenous estrogen”. Also, the “plasmic estrone amounts after vs before treatment” value in series [4] (capsule with 10 μg dose of 17β-estradiol, the other subjects) is “comparable with the amounts measured before treatment”. In series [4] (in general, after 17β-estradiol 2.5 μg, 5 μg and 10 μg, soft capsule), the “estrone concentrations after vs before treatment” value is “of the same order of magnitude as those measured before treatment”. In addition, the “proportionality between estrone Cmax or SSC and the administered dose” value in series [4] (in vivo) is “no proportionality”. For the same compound, in series [5], the local blood flow result was “increase”; the “quantity of vaginal secretions” value is listed as “increase”; the transvaginal potential difference result is on record as “increase the transvaginal potential difference”; the “trophic effect in the vulvo-vaginal mucous membrane” value is “recognized and has been widely described”. For the same compound, in series [5], the “vaginal pH” value is on record as “reduce the vaginal pH”. Further, in series [6] (daily), the “cytological, histological and clinical improvement in the vaginal mucous membrane” value was “desired cytological, histological and clinical improvement”; the endometrial proliferation entry is on record as “endometrial proliferation was noted in certain patients”. Moreover, the “systemic passage of 17β-estradiol” value in series [6] (indicated by endometrial proliferation) is “systemic passage”.
As for `C[C@]12CC[C@@H]3c4ccc(O)cc4CC[C@H]3[C@@H]1CCC2=O` [estrone], the “affinity … (decreasing order)” value in series [1] was 17β-estradiol>estriol>estrone.
Turning to `C[C@]12CC[C@@H]3c4ccc(O)cc4CC[C@H]3[C@@H]1C[C@@H](O)[C@@H]2O` [estriol], the “affinity … (decreasing order)” value in series [1] is reported as 17β-estradiol>estriol>estrone. Moreover, the “intrinsic activity relative to 17β-estradiol” value in series [3] (compared with 17β-estradiol) is reported as “less active”. In addition, in series [3], the agonist/antagonist properties entry is “partially agonist properties and even antagonist properties”; the “effect on endogenous estradiol” value is “antagonistic effect on endogenous estradiol”.

Source of the values: patent publication US6060077A, “Unit galenical formulation for local hormonotherapy of vaginal dryness” (priority 1995, dated 2000).
